Structures can show the parent of a compound that is named as a salt.
Target: GCN2 (Homo sapiens, UniProt Q9P2K8)
Assay: GCN2 enzymatic endpoint assay: phosphorylation of GFP-eIF2α measured by TR-FRET (Lanthascreen)
Type: biochemical
Conditions: tested as described in Example 77; compound and/or hydrochloride, dihydrochloride or trifluoroacetic acid salt; read-out: IC 50 Activity
In short: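 Endpoint kinase reaction with 2 μM ATP and 80 nM GFP-labelled eIF2α substrate, run at room temperature for 90 min, then stopped with EDTA. Phospho-substrate detected by terbium-antibody TR-FRET, activity taken as the 520/495 nm emission ratio.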

Chain of GCN2 (Q9P2K8 whole entry): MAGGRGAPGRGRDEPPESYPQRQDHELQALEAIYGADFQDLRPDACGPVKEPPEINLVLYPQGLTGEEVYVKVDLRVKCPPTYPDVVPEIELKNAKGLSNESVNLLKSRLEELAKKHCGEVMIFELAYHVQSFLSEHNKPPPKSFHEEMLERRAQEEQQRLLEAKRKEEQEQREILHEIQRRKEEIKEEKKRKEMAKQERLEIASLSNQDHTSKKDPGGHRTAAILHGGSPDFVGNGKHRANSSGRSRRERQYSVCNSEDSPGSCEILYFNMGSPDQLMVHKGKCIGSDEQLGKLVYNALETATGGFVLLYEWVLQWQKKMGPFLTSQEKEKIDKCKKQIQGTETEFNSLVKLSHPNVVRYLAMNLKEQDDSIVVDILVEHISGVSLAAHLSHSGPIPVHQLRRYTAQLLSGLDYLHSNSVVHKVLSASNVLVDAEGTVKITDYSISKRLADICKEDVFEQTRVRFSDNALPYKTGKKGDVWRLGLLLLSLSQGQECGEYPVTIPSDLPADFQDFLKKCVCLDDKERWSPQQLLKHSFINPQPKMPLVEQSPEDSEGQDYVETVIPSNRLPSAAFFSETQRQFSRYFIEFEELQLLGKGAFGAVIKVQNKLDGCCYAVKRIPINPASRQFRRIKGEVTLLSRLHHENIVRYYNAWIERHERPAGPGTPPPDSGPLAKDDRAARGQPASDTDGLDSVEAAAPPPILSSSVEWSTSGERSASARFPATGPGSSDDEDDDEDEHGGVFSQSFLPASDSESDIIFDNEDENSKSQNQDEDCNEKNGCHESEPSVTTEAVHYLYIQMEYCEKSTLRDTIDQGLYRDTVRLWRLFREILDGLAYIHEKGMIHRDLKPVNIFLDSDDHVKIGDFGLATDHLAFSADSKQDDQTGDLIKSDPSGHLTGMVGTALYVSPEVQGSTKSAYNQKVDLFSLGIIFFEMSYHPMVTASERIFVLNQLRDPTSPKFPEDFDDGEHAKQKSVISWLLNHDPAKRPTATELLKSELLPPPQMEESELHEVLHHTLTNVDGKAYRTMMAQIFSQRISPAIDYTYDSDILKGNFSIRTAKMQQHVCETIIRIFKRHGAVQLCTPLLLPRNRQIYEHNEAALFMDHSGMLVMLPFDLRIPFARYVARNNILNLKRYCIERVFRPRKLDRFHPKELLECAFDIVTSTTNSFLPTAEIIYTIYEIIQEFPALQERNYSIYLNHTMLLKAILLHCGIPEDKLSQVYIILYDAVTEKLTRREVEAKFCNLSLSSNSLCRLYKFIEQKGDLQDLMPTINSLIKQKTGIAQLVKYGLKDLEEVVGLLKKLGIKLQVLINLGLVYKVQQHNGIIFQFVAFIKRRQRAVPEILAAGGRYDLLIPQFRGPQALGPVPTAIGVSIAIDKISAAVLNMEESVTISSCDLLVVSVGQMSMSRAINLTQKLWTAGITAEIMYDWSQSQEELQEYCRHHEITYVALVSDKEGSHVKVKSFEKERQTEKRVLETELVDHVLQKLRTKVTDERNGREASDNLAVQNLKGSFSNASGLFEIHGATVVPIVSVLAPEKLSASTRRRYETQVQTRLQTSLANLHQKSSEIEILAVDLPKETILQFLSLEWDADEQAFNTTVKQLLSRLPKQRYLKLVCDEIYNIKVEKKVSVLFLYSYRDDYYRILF

Structure (SMILES)	IC50 [nM]
Cc1nnc(-c2ccc(-n3nc(Br)c4cnc(N[C@@H]5CC[C@@H](NC(=O)C(C)C)C5)nc43)cc2CCC#N)s1 [N-[(1R,3R)-3-[[3-bromo-1-[3-(2-cyanoethyl)-4-(5-methyl-1,3,4-thiadiazol-2-yl)phenyl]pyrazolo[3,4-d]pyrimidin-6-yl]amino]cyclopentyl]-2-methyl-propanamide]	500 to 1000
Cc1nnc(-c2ccc(-n3nc(Br)c4cnc(N[C@@H]5CC[C@@H](NC(=O)C(C)C)C5)nc43)cc2)s1 [N-[(1R,3R)-3-[[3-bromo-1-[4-(5-methyl-1,3,4-thiadiazol-2-yl)phenyl]pyrazolo [3,4-d]pyrimidin-6-yl]amino]cyclopentyl]-2-methyl-propanamide]	25 to 200
Cc1nnc(-c2ccc(-n3nc(Br)c4cnc(N[C@@H]5CC[C@@H](NC(=O)C6CC(C)(O)C6)C5)nc43)cc2)s1 (stereo partly drawn) [N-[(1R,3R)-3-[[3-bromo-1-[4-(5-methyl-1,3,4-thiadiazol-2-yl)phenyl]pyrazolo [3,4-d]pyrimidin-6-yl]amino]cyclopentyl]-3-hydroxy-3-methyl-cyclobutane-carboxamide]	25 to 200
C[C@H](N)c1cc(Cl)cc(-n2nc(Br)c3cnc(N[C@@H]4CC[C@@](C)(C(=O)N5CCNCC5)C4)nc32)c1 [[(1R,3R)-3-[[1-[3-[(1S)-1-aminoethyl]-5-chloro-phenyl]-3-bromo-pyrazolo [3,4-d]pyrimidin-6-yl]amino]-1-methyl-cyclopentyl]-piperazin-1-yl-methanone]	25 to 200
C[C@H](N)c1cc(Cl)cc(-n2nc(Br)c3cnc(N[C@@H]4CC[C@@](C)(CO)C4)nc32)c1 [[(1R,3R)-3-[[1-[3-[(1S)-1-aminoethyl]-5-chloro-phenyl]-3-bromo-pyrazolo [3,4-d]pyrimidin-6-yl]amino]-1-methyl-cyclopentyl]methanol hydrochloride]	25 to 200
COC1(C)CN(C(=O)[C@]2(C)CC[C@@H](Nc3ncc4c(Br)nn(-c5cc(F)c6ncccc6c5)c4n3)C2)C1 [[(1R,3R)-3-[[3-bromo-1-(8-fluoro-6-quinolyl)pyrazolo[3,4-d]pyrimidin-6-yl]amino]-1-methyl-cyclopentyl]-(3-methoxy-3-methyl-azetidin-1-yl)methanone]	< 25
COC1CCN(C(=O)[C@]2(C)CC[C@@H](Nc3ncc4c(Br)nn(-c5cc(F)c6ncccc6c5)c4n3)C2)C1 (stereo partly drawn) [[(1R,3R)-3-[[3-bromo-1-(8-fluoro-6-quinolyl)pyrazolo[3,4-d]pyrimidin-6-yl]amino]-1-methyl-cyclopentyl]-(3-methoxypyrrolidin-1-yl)methanone]	25 to 200
Cc1cn2c(n1)CN(C(=O)[C@@H]1CC[C@@H](Nc3ncc4c(Br)nn(-c5cc(F)c6ncccc6c5)c4n3)C1)CC2 [[(1R,3R)-3-[[3-bromo-1-(8-fluoro-6-quinolyl)pyrazolo[3,4-d]pyrimidin-6-yl]amino]cyclo-pentyl]-(2-methyl-6,8-dihydro-5H-imidazo [1,2-a]pyrazin-7-yl)methanone]	25 to 200
O=C([C@@H]1CC[C@@H](Nc2ncc3c(Br)nn(-c4cc(F)c5ncccc5c4)c3n2)C1)N1CCC2(CNC2)C(F)(F)C1 [[(1R,3R)-3-[[3-bromo-1-(8-fluoro-6-quinolyl)pyrazolo[3,4-d]pyrimidin-6-yl]amino]cyclo-pentyl]-(5,5-difluoro-2,7-diazaspiro[3.5]nonan-7-yl)methanone]	< 25
O=C([C@@H]1CC[C@@H](Nc2ncc3c(Br)nn(-c4cc(F)c5ncccc5c4)c3n2)C1)N1CCNC(C(F)(F)F)C1 (stereo partly drawn) [[(1R,3R)-3-[[3-bromo-1-(8-fluoro-6-quinolyl)pyrazolo[3,4-d]pyrimidin-6-yl]amino]cyclo-pentyl]-[3-(trifluoromethyl)piperazin-1-yl] methanone]	25 to 200
Cc1nnc(-c2ccc(-n3nc(Br)c4cnc(N[C@@H]5CC[C@@](C)(C(=O)N6CCNCC6)C5)nc43)cc2)s1 [[(1R,3R)-3-[[3-bromo-1-[4-(5-methyl-1,3,4-thiadiazol-2-yl)phenyl]pyrazolo [3,4-d]pyrimidin-6-yl]amino]-1-methyl-cyclopentyl]-piperazin-1-yl-methanone]	25 to 200
Cc1nnc(-c2ccc(-n3nc(Br)c4cnc(N[C@@H]5CC[C@@](C)(CO)C5)nc43)cc2)s1 [[(1R,3R)-3-[[3-bromo-1-[4-(5-methyl-1,3,4-thiadiazol-2-yl)phenyl]pyrazolo [3,4-d]pyrimidin-6-yl]amino]-1-methyl-cyclopentyl]methanol]	25 to 200

The next lines start with the values.

IC50 [nM]	Structure (SMILES)
25 to 200	Cc1nnc(-c2ccc(-n3nc(Br)c4cnc(N[C@@H]5CC[C@@](C)(C(=O)N6CCOCC6)C5)nc43)cc2)s1 [[(1R,3R)-3-[[3-bromo-1-[4-(5-methyl-1,3,4-thiadiazol-2-yl)phenyl]pyrazolo[3,4-d]pyrimidin-6-yl]amino]-1-methyl-cyclopentyl]-morpholino-methanone]
25 to 200	Cc1nnc(-c2ccc(-n3nc(Br)c4cnc(N[C@@H]5CC[C@@](C)(C(=O)N6CCCC6)C5)nc43)cc2)s1 [[(1R,3R)-3-[[3-bromo-1-[4-(5-methyl-1,3,4-thiadiazol-2-yl)phenyl]pyrazolo[3,4-d]pyrimidin-6-yl]amino]-1-methyl-cyclopentyl]-pyrrolidin-1-yl-methanone]
< 25	CC1(C(=O)N2CC3CCC(C2)O3)CC[C@@H](Nc2ncc3c(Br)nn(-c4cc(F)c5ncccc5c4)c3n2)C1 (stereo partly drawn) [[(3R)-3-[[3-bromo-1-(8-fluoro-6-quinolyl)pyrazolo[3,4-d]pyrimidin-6-yl]amino]-1-methyl-cyclopentyl]-(8-oxa-3-azabicyclo [3.2.1]octan-3-yl)methanone]
25 to 200	C[C@@H]1CN(C(=O)C2(C)CC[C@@H](Nc3ncc4c(Br)nn(-c5cc(F)c6ncccc6c5)c4n3)C2)C[C@@H](C)O1 (stereo partly drawn) [[(3R)-3-[[3-bromo-1-(8-fluoro-6-quinolyl)pyrazolo[3,4-d]pyrimidin-6-yl]amino]-1-methyl-cyclopentyl]-[(2R,6R)-2,6-dimethylmorpholin-4-yl]methanone]
< 25	CC1(C(=O)N2CCOCC2)CC[C@@H](Nc2ncc3c(Br)nn(-c4cc(F)c5ncccc5c4)c3n2)C1 (stereo partly drawn) [[(3R)-3-[[3-bromo-1-(8-fluoro-6-quinolyl)pyrazolo[3,4-d]pyrimidin-6-yl]amino]-1-methyl-cyclopentyl]-morpholino-methanone]
< 25	CC1(C(=O)N2CCNCC2)CC[C@@H](Nc2ncc3c(Br)nn(-c4cc(F)c5ncccc5c4)c3n2)C1 (stereo partly drawn) [[(3R)-3-[[3-bromo-1-(8-fluoro-6-quinolyl)pyrazolo[3,4-d]pyrimidin-6-yl]amino]-1-methyl-cyclopentyl]-piperazin-1-yl-methanone]
25 to 200	Cc1nnc(-c2ccc(-n3nc(Br)c4cnc(N[C@@H]5CCC(C)(C(=O)N6CCNCC6)C5)nc43)cc2)o1 (stereo partly drawn) [[(3R)-3-[[3-bromo-1-[4-(5-methyl-1,3,4-oxadiazol-2-yl)phenyl]pyrazolo[3,4-d]pyrimidin-6-yl]amino]-1-methyl-cyclo-pentyl]-piperazin-1-yl-methanone]
25 to 200	Cc1nnc(-c2ccc(-n3nc(Br)c4cnc(N[C@@H]5CCC(C)(C(=O)N6C[C@@H](C)O[C@H](C)C6)C5)nc43)cc2)o1 (stereo partly drawn) [[(3R)-3-[[3-bromo-1-[4-(5-methyl-1,3,4-oxadiazol-2-yl)phenyl]pyrazolo[3,4-d]pyrimidin-6-yl]amino]-1-methyl-cyclopentyl]-[(2R,6R)-2,6-dimethylmorpholin-4-yl]methanone]

Source: patent US11046699B2, “Pyrazolo-pyrimidin-amino-cycloalkyl compounds and their therapeutic uses” (RAPT THERAPEUTICS, INC., priority 2018, dated 2021)
